In patent US8383384B2, “Polypeptide having glycosylation activity on a flavonoid” (Suntory Holdings Limited, priority 2007, dated 2013):

What was measured:
TRa2 = assay: Glycosyl donor selectivity of TRa2; type: biochemical, Trichoderma viride; settings: under the conditions shown in the Example section
Source text: Moreover, this enzyme is a glycosyltransferase capable of producing not only sugars composed of one or two glucose molecules, but also glycosides whose sugar chain length is three (G3) or more glucose molecules.

[1] = Heat stability of glycoside (% remaining, HPLC); type: physicochemical; settings: 100 μM in 10 mM potassium phosphate buffer pH 7.0, 4° C. to 100° C., 0 to 4 hours
Description: After 10 mM potassium phosphate buffer (pH 7.0, 30 μl) containing 100 μM (+)-catechin or 4′-O-α-D-glucopyranosyl-(+)-catechin was treated at different temperatures ranging from 4° C. to 100° C. for 0 to 4 hours, each sample was transferred on ice and mixed with 0.1% TFA (60 μl), followed by HPLC analysis in the same manner as shown in Example 1.

[2] = Solubility in water (HPLC quantification of supernatant); type: physicochemical; settings: added to water at 10 to 450 mg/ml, vigorous stirring, centrifugation

SMILES | use as glycosyl donor by TRa2 (TRa2) | also measured
OC[C@H]1O[C@H](O[C@H]2[C@H](O)[C@@H](O)C(O)O[C@@H]2CO)[C@H](O)[C@@H](O)[C@@H]1O (mixture of isomers) [maltose] | does not target | 
OC[C@H]1O[C@H](Oc2ccc([C@H]3Oc4cc(O)cc(O)c4C[C@@H]3O)cc2O)[C@H](O)[C@@H](O)[C@@H]1O [4′-O-α-D-glucopyranosyl-(+)-catechin] |  | heat stability (% remaining) compared with catechin [1]: more stable against heat than catechin
OC[C@H]1O[C@H](Oc2cc(O)cc3c2C[C@H](O)[C@@H](c2ccc(O)c(O)c2)O3)[C@H](O)[C@@H](O)[C@@H]1O [5-O-α-D-glucopyranosyl-(+)-catechin] |  | solubility in water relative to (+)-catechin [2]: at least 40 fold
Oc1cc(O)c2c(c1)O[C@H](c1ccc(O)c(O)c1)[C@@H](O)C2 [(+)-catechin] |  | solubility in water [2]: substantially insoluble in water
O=C[C@H](O)[C@@H](O)[C@H](O[C@@H]1O[C@H](CO)[C@@H](O)[C@H](O)[C@H]1O)[C@H](O)CO [cellobiose] | does not target | 
OC[C@H]1O[C@@H]2O[C@H]3[C@H](O)[C@@H](O)[C@@H](O[C@H]4[C@H](O)[C@@H](O)[C@@H](O[C@H]5[C@H](O)[C@@H](O)[C@@H](O[C@H]6[C@H](O)[C@@H](O)[C@@H](O[C@H]7[C@H](O)[C@@H](O)[C@@H](O[C@H]1[C@H](O)[C@H]2O)O[C@@H]7CO)O[C@@H]6CO)O[C@@H]5CO)O[C@@H]4CO)O[C@@H]3CO [α-cyclodextrin] | does not target | 
OC[C@H]1O[C@@H]2O[C@H]3[C@H](O)[C@@H](O)[C@@H](O[C@H]4[C@H](O)[C@@H](O)[C@@H](O[C@H]5[C@H](O)[C@@H](O)[C@@H](O[C@H]6[C@H](O)[C@@H](O)[C@@H](O[C@H]7[C@H](O)[C@@H](O)[C@@H](O[C@H]8[C@H](O)[C@@H](O)[C@@H](O[C@H]1[C@H](O)[C@H]2O)O[C@@H]8CO)O[C@@H]7CO)O[C@@H]6CO)O[C@@H]5CO)O[C@@H]4CO)O[C@@H]3CO [β-cyclodextrin] | does not target | 
